Experiments:
[1] = Heavy metal removal ability test in contaminated soil (ICP-MS), cadmium; conditions: for Cadmium (Cd) Adsorption amount: contaminated soil; for Cadmium (Cd) Adsorption rate: relative to EDTA control
Protocol: (§1) (1) Preparation of Soil Contaminated with Heavy Metal
(§2) After collecting and pulverizing uncontaminated soil, fine particles obtained by using a mesh were mixed with the aqueous heavy metal solution to prepare soil samples contaminated with heavy metals.
(§3) Each 3 ml of the prepared aqueous solution was added to a soil sample contaminated with heavy metals and mixed for 5 minutes.
(§4) 50 ml of distilled water was added to the contaminated soil mixed with the aqueous solution for restoring soil, stirred for 20 minutes, and settled for 1 hour, and a supernatant was prepared as a sample solution.
(§5) The prepared sample solution was analyzed for the heavy metal component using an Inductively Coupled Plasma Mass Spectrometer (ICP-MS) (Xseries™ 2, Thermo Fisher Scientific, UK).
(§6) Adsorption rate of heavy metals (%)=(Adsorption amount of Embodiment/Adsorption amount of Control)×100 Equation 1

[2] = Heavy metal removal ability test in contaminated soil around a factory (WAK-Me test kit); conditions: 1.0 wt % aqueous solution, colour comparison test kit
Protocol: The contaminated soil around the factory in the industrial complex was collected, pulverized, and meshed to prepare fine particles of soil samples.
Each 3 ml of aqueous solutions for restoring soil was added to soil samples and mixed for 5 minutes.

[3] = Heavy metal removal ability test in contaminated soil (ICP-MS), arsenic; conditions: for Arsenic (As) Adsorption amount: contaminated soil; for Arsenic (As) Adsorption rate: relative to EDTA control
Protocol: as §1, §2, §3, §4, §5, §6

[4] = Heavy metal removal ability test in contaminated soil (ICP-MS), nickel; conditions: for Nickel (Ni) Adsorption amount: contaminated soil; for Nickel (Ni) Adsorption rate: relative to EDTA control
Protocol: as §1, §2, §3, §4, §5, §6

human skin = experiment: Skin irritation test of active ingredient (patch method, CTFA guidelines); format: in vivo; conditions: 24 h patch; for Test result (number of subject) (+) / Test result (number of subject) (++) / Test result (number of subject) (±) / Test result (number of subject) (−): 20 people; for Test result (number of subject) (+): (+) apparent reddening; for Test result (number of subject) (++): (++) more reddened and swollen; for Test result (number of subject) (±): (±) slightly reddish; for Test result (number of subject) (−): (−) no erythema
Protocol: A filter paper disk was placed in an 8 mm diameter, 10 panels of pin chamber.
After 24 hours, the pin chamber was removed, and skin conditions were visually observed. The degree and grade for skin irritation were calculated according to the following Equation 2, and the results are shown in Table 4 below.
[Criteria for Skin Irritation]
(−): No erythema or particularly no symptoms; (±): slightly reddish than the periphery; (+): Apparent reddening than periphery; (++): More reddened and swollen than periphery.
[Grade for Skin Irritation]
Degree of irritation 0-0.1: Grade I (unstimulated);
Degree of irritation 0.11-0.3: Grade II (weakly stimulated);
Degree of irritation 0.31-0.5: Grade III (moderately stimulated);
Degree of irritation 0.51 or more: Grade IV (strongly stimulated)

[5] = Formaldehyde (formalin) removing ability test (GC); conditions: 2.0% formaldehyde solution, 3 molar equivalents of compound, room temperature; for Formaldehyde GC Area, 30 min: after 30 min; for Formaldehyde GC Area, 180 min: after 180 min; for Formaldehyde GC Area, Initial: initial state

O=C(O)CN(CCN(CC(=O)O)CC(=O)O)CC(=O)O [Control (EDTA), ethylenediaminetetraacetic acid, reference compound]
Cadmium (Cd) Adsorption amount ([1]; content 0.5% aqueous solution): 41 ppm | Total amount (Cu, Zn, Mn, Ni, Cd) [2]: 2.0 ppm | Arsenic (As) Adsorption amount ([3]; content 0.5% aqueous solution): 25 ppm | Nickel (Ni) Adsorption amount ([4]; content 0.5% aqueous solution): 49 ppm

O=C(O)c1ccc(N2CCN(c3ccc(C(=O)O)o3)CCN(c3ccc(C(=O)O)o3)CCN(c3ccc(C(=O)O)o3)CC2)o1 [Embodiment 8, 5,5′,5″,5′″-(1,4,7,10-tetraazacyclododecane-1,4,7,10-tetrayl)tetrakis(furan-2-carboxylic Acid)]
Cadmium (Cd) Adsorption amount ([1]; content 0.5% aqueous solution): 61 ppm | Cadmium (Cd) Adsorption rate ([1]; content 0.5%): 149% | Cadmium (Cd) Adsorption amount ([1]; content 1.0% aqueous solution): 64 ppm | Cadmium (Cd) Adsorption rate ([1]; content 1.0%): 156% | Cadmium (Cd) Adsorption amount ([1]; content 2.0% aqueous solution): 71 ppm | Cadmium (Cd) Adsorption rate ([1]; content 2.0%): 173% | Total amount (Cu, Zn, Mn, Ni, Cd) [2]: ≤5 ppm | Test result (number of subject) (+) (human skin; content 0.1 wt %): 0 | Test result (number of subject) (++) (human skin; content 0.1 wt %): 0 | Test result (number of subject) (±) (human skin; content 0.1 wt %): 0 | Test result (number of subject) (−) (human skin; content 0.1 wt %): 20 | Degree of irritation (human skin; content 0.1 wt %): 0 | Grade for skin irritation (human skin; content 0.1 wt %): I (Degree of irritation 0-0.1: Grade I (unstimulated)) | Test result (number of subject) (+) (human skin; content 0.5 wt %): 0 | Test result (number of subject) (++) (human skin; content 0.5 wt %): 0 | Test result (number of subject) (±) (human skin; content 0.5 wt %): 0 | Test result (number of subject) (−) (human skin; content 0.5 wt %): 20 | Degree of irritation (human skin; content 0.5 wt %): 0 | Grade for skin irritation (human skin; content 0.5 wt %): I (Degree of irritation 0-0.1: Grade I (unstimulated)) | Test result (number of subject) (+) (human skin; content 1.0 wt %): 0 | Test result (number of subject) (++) (human skin; content 1.0 wt %): 0 | Test result (number of subject) (±) (human skin; content 1.0 wt %): 2 | Test result (number of subject) (−) (human skin; content 1.0 wt %): 18 | Degree of irritation (human skin; content 1.0 wt %): 0.10 | Grade for skin irritation (human skin; content 1.0 wt %): I (Degree of irritation 0-0.1: Grade I (unstimulated)) | Arsenic (As) Adsorption amount ([3]; content 0.5% aqueous solution): 39 ppm | Arsenic (As) Adsorption rate ([3]; content 0.5%): 156% | Arsenic (As) Adsorption amount ([3]; content 1.0% aqueous solution): 47 ppm | Arsenic (As) Adsorption rate ([3]; content 1.0%): 188% | Arsenic (As) Adsorption amount ([3]; content 2.0% aqueous solution): 49 ppm | Arsenic (As) Adsorption rate ([3]; content 2.0%): 196% | Nickel (Ni) Adsorption amount ([4]; content 0.5% aqueous solution): 86 ppm | Nickel (Ni) Adsorption rate ([4]; content 0.5%): 176% | Nickel (Ni) Adsorption amount ([4]; content 1.0% aqueous solution): 96 ppm | Nickel (Ni) Adsorption rate ([4]; content 1.0%): 196% | Nickel (Ni) Adsorption amount ([4]; content 2.0% aqueous solution): 99 ppm | Nickel (Ni) Adsorption rate ([4]; content 2.0%): 202% | Formaldehyde GC Area, 30 min [5]: 0.168 mAU*min | Formaldehyde GC Area, 180 min [5]: 0 mAU*min | Formaldehyde GC Area, Initial [5]: 0.305 mAU*min

O=C(O)c1cncc(N2CCN(c3cncc(C(=O)O)c3)CCN(c3cncc(C(=O)O)c3)CCN(c3cncc(C(=O)O)c3)CC2)c1 [Embodiment 7, 5,5′,5″,5′″-(1,4,7,10-tetraazacyclododecane-1,4,7,10-tetrayl)tetranicotinic Acid]
Cadmium (Cd) Adsorption amount ([1]; content 0.5% aqueous solution): 62 ppm | Cadmium (Cd) Adsorption rate ([1]; content 0.5%): 151% | Cadmium (Cd) Adsorption amount ([1]; content 1.0% aqueous solution): 72 ppm | Cadmium (Cd) Adsorption rate ([1]; content 1.0%): 176% | Cadmium (Cd) Adsorption amount ([1]; content 2.0% aqueous solution): 76 ppm | Cadmium (Cd) Adsorption rate ([1]; content 2.0%): 185% | Total amount (Cu, Zn, Mn, Ni, Cd) [2]: ≤5 ppm | Test result (number of subject) (+) (human skin; content 0.1 wt %): 0 | Test result (number of subject) (++) (human skin; content 0.1 wt %): 0 | Test result (number of subject) (±) (human skin; content 0.1 wt %): 0 | Test result (number of subject) (−) (human skin; content 0.1 wt %): 20 | Degree of irritation (human skin; content 0.1 wt %): 0 | Grade for skin irritation (human skin; content 0.1 wt %): I (Degree of irritation 0-0.1: Grade I (unstimulated)) | Test result (number of subject) (+) (human skin; content 0.5 wt %): 0 | Test result (number of subject) (++) (human skin; content 0.5 wt %): 0 | Test result (number of subject) (±) (human skin; content 0.5 wt %): 0 | Test result (number of subject) (−) (human skin; content 0.5 wt %): 20 | Degree of irritation (human skin; content 0.5 wt %): 0 | Grade for skin irritation (human skin; content 0.5 wt %): I (Degree of irritation 0-0.1: Grade I (unstimulated)) | Test result (number of subject) (+) (human skin; content 1.0 wt %): 0 | Test result (number of subject) (++) (human skin; content 1.0 wt %): 0 | Test result (number of subject) (±) (human skin; content 1.0 wt %): 0 | Test result (number of subject) (−) (human skin; content 1.0 wt %): 20 | Degree of irritation (human skin; content 1.0 wt %): 0 | Grade for skin irritation (human skin; content 1.0 wt %): I (Degree of irritation 0-0.1: Grade I (unstimulated)) | Arsenic (As) Adsorption amount ([3]; content 0.5% aqueous solution): 41 ppm | Arsenic (As) Adsorption rate ([3]; content 0.5%): 164% | Arsenic (As) Adsorption amount ([3]; content 1.0% aqueous solution): 45 ppm | Arsenic (As) Adsorption rate ([3]; content 1.0%): 180% | Arsenic (As) Adsorption amount ([3]; content 2.0% aqueous solution): 51 ppm | Arsenic (As) Adsorption rate ([3]; content 2.0%): 204% | Nickel (Ni) Adsorption amount ([4]; content 0.5% aqueous solution): 92 ppm | Nickel (Ni) Adsorption rate ([4]; content 0.5%): 188% | Nickel (Ni) Adsorption amount ([4]; content 1.0% aqueous solution): 97 ppm | Nickel (Ni) Adsorption rate ([4]; content 1.0%): 198% | Nickel (Ni) Adsorption amount ([4]; content 2.0% aqueous solution): 102 ppm | Nickel (Ni) Adsorption rate ([4]; content 2.0%): 208% | Formaldehyde GC Area, 30 min [5]: 0.181 mAU*min | Formaldehyde GC Area, 180 min [5]: 0 mAU*min | Formaldehyde GC Area, Initial [5]: 0.305 mAU*min

O=C(O)c1ccc(N2CCN(c3ccc(C(=O)O)cc3)CCN(c3ccc(C(=O)O)cc3)CCN(c3ccc(C(=O)O)cc3)CC2)cc1 [Embodiment 6, 4,4′,4″,4′″-(1,4,7,10-tetraazacyclododecane-1,4,7,10-tetrayl)tetrabenzoic Acid]
Cadmium (Cd) Adsorption amount ([1]; content 0.5% aqueous solution): 61 ppm | Cadmium (Cd) Adsorption rate ([1]; content 0.5%): 149% | Cadmium (Cd) Adsorption amount ([1]; content 1.0% aqueous solution): 69 ppm | Cadmium (Cd) Adsorption rate ([1]; content 1.0%): 168% | Cadmium (Cd) Adsorption amount ([1]; content 2.0% aqueous solution): 77 ppm | Cadmium (Cd) Adsorption rate ([1]; content 2.0%): 188% | Total amount (Cu, Zn, Mn, Ni, Cd) [2]: ≤5 ppm | Test result (number of subject) (+) (human skin; content 0.1 wt %): 0 | Test result (number of subject) (++) (human skin; content 0.1 wt %): 0 | Test result (number of subject) (±) (human skin; content 0.1 wt %): 0 | Test result (number of subject) (−) (human skin; content 0.1 wt %): 20 | Degree of irritation (human skin; content 0.1 wt %): 0 | Grade for skin irritation (human skin; content 0.1 wt %): I (Degree of irritation 0-0.1: Grade I (unstimulated)) | Test result (number of subject) (+) (human skin; content 0.5 wt %): 0 | Test result (number of subject) (++) (human skin; content 0.5 wt %): 0 | Test result (number of subject) (±) (human skin; content 0.5 wt %): 0 | Test result (number of subject) (−) (human skin; content 0.5 wt %): 20 | Degree of irritation (human skin; content 0.5 wt %): 0 | Grade for skin irritation (human skin; content 0.5 wt %): I (Degree of irritation 0-0.1: Grade I (unstimulated)) | Test result (number of subject) (+) (human skin; content 1.0 wt %): 0 | Test result (number of subject) (++) (human skin; content 1.0 wt %): 0 | Test result (number of subject) (±) (human skin; content 1.0 wt %): 1 | Test result (number of subject) (−) (human skin; content 1.0 wt %): 19 | Degree of irritation (human skin; content 1.0 wt %): 0.05 | Grade for skin irritation (human skin; content 1.0 wt %): I (Degree of irritation 0-0.1: Grade I (unstimulated)) | Arsenic (As) Adsorption amount ([3]; content 0.5% aqueous solution): 42 ppm | Arsenic (As) Adsorption rate ([3]; content 0.5%): 168% | Arsenic (As) Adsorption amount ([3]; content 1.0% aqueous solution): 45 ppm | Arsenic (As) Adsorption rate ([3]; content 1.0%): 180% | Arsenic (As) Adsorption amount ([3]; content 2.0% aqueous solution): 48 ppm | Arsenic (As) Adsorption rate ([3]; content 2.0%): 192% | Nickel (Ni) Adsorption amount ([4]; content 0.5% aqueous solution): 81 ppm | Nickel (Ni) Adsorption rate ([4]; content 0.5%): 165% | Nickel (Ni) Adsorption amount ([4]; content 1.0% aqueous solution): 83 ppm | Nickel (Ni) Adsorption rate ([4]; content 1.0%): 169% | Nickel (Ni) Adsorption amount ([4]; content 2.0% aqueous solution): 87 ppm | Nickel (Ni) Adsorption rate ([4]; content 2.0%): 178% | Formaldehyde GC Area, 30 min [5]: 0.183 mAU*min | Formaldehyde GC Area, 180 min [5]: 0 mAU*min | Formaldehyde GC Area, Initial [5]: 0.305 mAU*min
